Test [1] relates to neurons acutely dissociated from mouse midbrain substantia nigra pars reticulata. Description: Application of fluorescent sugar derivatives to acutely dissociated normal neurons (confocal imaging of uptake). The format is cell-based. The note with it: 20 μM 2-TRLG co-administered with 100 μM blue derivative, 37° C. The protocol:
This was conducted according to a method described in WO 2010/16587.
Living neurons were acutely dissociated from mouse midbrain substantia nigra pars reticulata, and to which a mixed solution containing 100 μM of 2-PBDG and 20 μM of 2-TRLG was administered at 37° C. for 5 minutes. FIGS. 1A to C represent confocal microscopic images taken immediately before this. A is a fluorescence image in blue wavelength region (Blue channel, wavelength range: 415-580 nm). The position of cells is recognized by autofluorescence. The fluorescence signal intensity is represented by pseudocolor. B is a fluorescence image in red wavelength region (Red channel, 580-740 nm). A and B were obtained both by simultaneous excitation using 405 nm Blue diode laser at an intensity of 60%, wherein photomultipliers (PMT) 1 and 2 were used respectively, and the detection sensitivity of PMT2 was raised higher than PMT1 so that the presence or absence of invasion of 2-TRLG can be detected in a sensitive manner. C is a view in which the bright field image is overlaid on the fluorescence images of A and B.
An experiment was conducted in the same manner as in Example 2.
FIGS. 2A to C represent confocal microscopic images immediately before administration of a mixed solution containing 100 μM of 2-PBLG and 20 μM of 2-TRLG at 37° C. to acutely dissociated neurons of mouse midbrain substantia nigra pars reticulata for 5 minutes.
FIG. 3 represents confocal microscopic images before and after administration of a mixed solution containing 100 μM of 2-HCDG and 20 μM of 2-TRLG at 37° C. for 3 minutes to neurons acutely dissociated from mouse midbrain substantia nigra pars reticulata. A and B are fluorescence images acquired before administration in Blue channel (415-580 nm) and Red channel (580-740 nm), respectively. The excitation wavelength is 405 nm. C is an image of differential interference (Differential Interference contrast, DIC). D is an overlay of the above-described images. E to H are the same as A to D, excepting that E to H are images acquired 4 minutes after initiation of washout of the fluorescence tracer solution after administration of the 2-HCDG+2-TRLG fluorescence tracer solution at 37° C. for 3 minutes. […] Since invasion of 2-TRLG into a cell is not observed, the plasma membrane of the neuron is thought to be maintained intactly.
Since the optimal excitation wavelength was as very low as 320 nm in this experiment, an image was acquired by Retiga-2000R CCD camera manufactured by Q-imaging via a custom-order filter constituted of an excitation filter (320 nm) (half width: 40 nm), a fluorescence filter (435 nm) (half width: 40 nm) and a dichroic mirror (409 nm), by a xenon lamp, using Nikon Ti-E real time deconvolution microscope.

The test system of test [2] is tumor cell cluster composed of mouse insulinoma cells (MIN6). In words: Imaging of tumor cell cluster composed of MIN6 cells (real time laser scanning confocal microscope). The note with it: MIN6 cluster day 13. The format is cell-based. How it is done:
A culture solution prepared by suspending MIN6 cells at a proportion of 10×10^4 cells/mL was dropped in an amount of 10 μL on a glass cover slip, then, allowed to adhere to the glass surface, and 3 mL of the culture solution was added and cultured. The half quantity of the culture solution was changed every three days.
Cryopreserved MIN6 cells (cells donated from Professor Miyazaki Junichi of Osaka University and cultured 5 to 8 passages) were subjected to culture according to an ordinary method, and cultured 7 to 9 passages which were used in experiments. The half amount of the culture solution was changed every two days.
NaCl 120.0 mM, KCl 4.75 mM, KH2 PO4 1.19 mM, MgSO4.7H2O 1.19 mM, CaCl2.2H2O 1 mM, NaHCO3 5.02 mM, D-Glucose 5.6 mM, HEPES 10 mM (adjusted to pH 7.35 with 1M NaOH). For inhibiting entrance and elimination of fluorescently labeled glucose via a gap junction/hemichannel, 0.1 mM Carbenoxolone (SIGMA #C4790) was added. The HEPES solution for image acquisition was used as a solution for preparing a 2-PBLG solution and as a solution for preparing a 2-PBLG/2-TRLG solution and 2-PBLG/2-NBDLG/2-TRLG solution.
A glass cover slip wherein MIN6 cells had been cultured was transferred into a HEPES solution for image acquisition in a perfusion chamber set on a universal stage (Leica 11600234) on a confocal laser scanning microscope (TCS SP5 available from Leica), and adhered gently and tightly to the glass surface at the bottom of the chamber. […] Further, there is an excellent effect that in the space sandwiched by the metal guides, the perfusion solution flows smoothly as a laminar flow and quick solution exchange is possible.
A perfusion solution feeding system is equipped with one 60 mL cylinder for a control solution and five 10 mL cylinders for agent feeding, which can be switched as needed by a magnetic valve to allow perfusion. In experiments according to the present invention, a 5.6 mM glucose-containing HEPES solution for image acquisition was administered using the 60 mL cylinder and a mixed solution of 2-PBLG/2-NBDLG/2-TRLG, a mixed solution of 2-PBDG/2-TRLG, or a mixed solution of 2-PBLG/2-TRLG was administered using one of the five 10 mL cylinders. As described below, to avoid generation of bubbles in the perfusion chamber, both the solutions were heated beforehand, combined in one tube before being introduced into the perfusion chamber, the flow rate thereof being controlled by a flow rate controller, then, heated again by an inline heater and fed to the perfusion chamber on the confocal microscope.
A laser scan confocal microscope (manufactured by Leica, TCS-SP5 system, microscope body is DMI6000 CS trino electromotive inverted microscope) was used in conventional mode. Regarding laser used, a 405 nm diode laser was used for excitation of 2-PBLG and 2-PBDG, excitation of a mixed solution of 2-PBLG (or 2-PBDG) and 2-TRLG with a single light source, or live staining of nucleus by DAPI. The irradiation intensity was appropriately adjusted in accordance with the fluorescent pigment used so as to obtain sufficient observation intensity by an acoustic optical polarization element (Acoustic Optical Tunable Filter, AOTF). 2-NBDLG and 2-TRLG were excited by 488 nm Argon laser. The scan speed was 200 Hz or 400 Hz.
In fluorescence detection, a photomultiplier detector (PMT) 1 was used for detection of blue fluorescence by 2-PBDG or 2-PBLG and images were acquired in a wavelength detection range set at 415-580 nm in the case of detection of bicolor of 2-PBLG/2-TRLG and in a wavelength detection range set at 415-500 nm in the case of detection of tricolor of 2-PBLG/2-NBDLG/2-TRLG. For detection of green fluorescence by 2-NBDLG, PMT2 (called green channel, the same shall apply hereinafter) was used in a wavelength detection range of 500-580 nm. For detection of red fluorescence by 2-TRLG, PMT3 (called red channel, the same shall apply hereinafter) was used in a wavelength detection range of 580-740 nm. […]

“Also recorded” adds a separate entry of the source.

For “2-TexasRed-2-amino-2-deoxy-L-glucose [2-TRLG]”, the “fluorescence intensity in Red channel / invasion of 2-TRLG into a cell” value in test [1] was “did not increase; also recorded: scarcely increased; also recorded: not observed”. The “fluorescence of cells in the cell cluster 2 minutes after initiation of washout” value in test [2] (mixed solution 100 μM 2-PBLG and 20 μM 2-TRLG, administered 5 minutes) is on record as “invades into the cell having increased membrane permeability mainly present at the center of a cell cluster”. Also, the “fluorescence of cells in the cancer cell cluster 8 minutes after completion of administration” value in test [2] (mixed solution 100 μM 2-PBLG, 100 μM 2-NBDLG, 20 μM 2-TRLG) is on record as “very weak red fluorescence”.

The record behind these values is US10288604B2, “Method for imaging cell using fluorescence-labeled sugar derivative having coumarin derivative bound thereto, and imaging agent” (HIROSAKI UNIVERSITY, priority 2012, dated 2019).
